Test results taken from patent publication US10590070B2, “Compositions and methods for treating and preventing neurodegenerative disorders” (ALZHEON, INC., priority 2015, dated 2020).

Biological target: T1, recombinant Human β-Amyloid Peptide (1-42) (Homo sapiens, UniProt P05067)
T1 construct: recombinant Human β-Amyloid Peptide (1-42); purchased BioLegend 843801
Assay: Mass spectrometry (MS) binding assay
Conditions: 22 pmol/μL peptide, 1100 pmol/μL compound (50×); for Number of molecules bound to Aβ42: direct infusion Q-TOF MS, stoichiometry of the binding; for Semiquantitative Estimation: semiquantitative evaluation of the binding compared to a blank
Procedure: Compounds of the invention were screened by mass spectrometry (“MS”) binding assays to assess the ability of compounds to bind to the protein. Approximately 1 mg of the compound was reconstituted in 1 mL of MilliQ water and vortexed vigorously for 2 minutes until completely in solution. The sample was then diluted to create an approximately 2200 pmol/μL solution. One mg of recombinant Human β-Amyloid Peptide (1-42) from BioLegend (99% purity, cat: 843801) was reconstituted in 200 μL of MilliQ water and vortexed vigorously for 2 minutes to solubilize the peptide creating a 5 mg/mL solution. Samples were then diluted to a final concentration 44 pmol/μL prior to mix with drug solution. Samples were then mixed together for a final concentration of 22 pmol/μL (x) for peptide and 1100 pmol/μL for individual compounds (50×). Samples were infused directly in mass specs after adding 50 μL of 10% formic acid in final solution to increase the ionization. The data acquisition was performed using a Waters time of flight mass spectrometer (Q-TOF Micro). The data was acquired using the scanning mode to allow for the detection of the peptide. Samples were infused at room temperature. The mass spectrometer conditions were maintained throughout the study to ensure consistency of the data. The Waters Qtof conditions were as follows: Samples were directly infused into the mass spectrometer at a flow rate of 20 μL/min using in-build Syringe Pump and Hamilton 1 mL Syringe and the acquisition time was kept 2 minutes. Once acquisition of the samples was completed, the raw data was then analyzed using the Water MassLynx 4.1, SCN744. Stoichiometry of the binding was determined and the semiquantitative evaluation of the binding was compared to a blank.

T1 sequence (P05067 672-713 limits assumed): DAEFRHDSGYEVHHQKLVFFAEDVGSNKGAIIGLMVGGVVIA

Row | Number of molecules bound to Aβ42 | Semiquantitative Estimation | SMILES
1 | [+2] | [++] | CC(C)[C@H](N)C(=O)NC1CCC(S(=O)(=O)O)C1 (stereo partly drawn) [Compound 2010, 3-((S)-2-amino-3-methylbutanamido)cyclopentane-1-sulfonic acid]
2 | [+3] | [+++] | N[C@@H](Cc1ccc(O)cc1)C(=O)NC1CCC(S(=O)(=O)O)C1 (stereo partly drawn) [Compound 2015, 3-((S)-2-amino-3-(4-hydroxyphenyl)propanamido)cyclopentane-1-sulfonic acid]
3 | No Binding |  | O=C(N[C@@H](Cc1ccc(O)cc1)C(=O)NC1CCC(S(=O)(=O)O)C1)OCc1ccccc1 (stereo partly drawn) [Compound 2021, 3-((S)-2-(((benzyloxy)carbonyl)amino)-3-(4-hydroxyphenyl)propanamido)cyclopentane-1-sulfonic acid]
4 | [+2] | [++] | CS(=O)(=O)CC[C@H](NC(=O)OCc1ccccc1)C(=O)NC1CCC(S(=O)(=O)O)C1 (stereo partly drawn) [Compound 2026, 3-((S)-2-(((benzyloxy)carbonyl)amino)-4-(methylsulfonyl)butanamido)cyclopentane-1-sulfonic acid]
5 | No Binding |  | O=C(N[C@@H](Cc1ccccc1)C(=O)O)C1CCC(S(=O)(=O)O)C1 (some centres unmarked) [Compound 2034]
6 | [+1] | [+] | O=C(N[C@@H](CO)C(=O)O)C1CCC(S(=O)(=O)O)C1 (some centres unmarked) [Compound 2037]
7 | [+2] | [++] | O=C([C@@H]1C[C@H](S(=O)(=O)O)CN1)N(CCO)CCO [Compound 2059]
8 | [+4] | [++++] | O=C(NC1CCNCC1)[C@@H]1C[C@H](S(=O)(=O)O)CN1 [Compound 2077]
9 | [+2] | [++] | O=C(NCc1ccccc1)[C@@H]1C[C@@H](S(=O)(=O)O)CN1 [Compound 2083]

The remaining lines, values behind:

Row | SMILES | Number of molecules bound to Aβ42 | Semiquantitative Estimation
10 | NC1CCC(S(=O)(=O)O)C1 (centres unmarked) [Compound 2005, 3-aminocyclopentane-1-sulfonic acid] | [+1] | [+]
11 | CC(C)C[C@H](N)C(=O)NC1CCC(S(=O)(=O)O)C1 (stereo partly drawn) [Compound 2011, 3-((S)-2-amino-4-methylpentanamido)cyclopentane-1-sulfonic acid] | [+1] | [+]
12 | N[C@@H](CO)C(=O)NC1CCC(S(=O)(=O)O)C1 (some centres unmarked) [Compound 2012] | [+4] | [++++]
13 | CS(=O)(=O)CC[C@H](N)C(=O)NC1CCC(S(=O)(=O)O)C1 (stereo partly drawn) [Compound 2014, 3-((S)-2-amino-4-(methylsulfonyl)butanamido)cyclopentane-1-sulfonic acid] | [+3] | [+++]
14 | CC(C)C[C@H](NC(=O)OCc1ccccc1)C(=O)NC1CCC(S(=O)(=O)O)C1 (stereo partly drawn) [Compound 2024, 3-((S)-2-(((benzyloxy)carbonyl)amino)-4-methylpentanamido)cyclopentane-1-sulfonic acid] | No Binding | 
15 | COC(=O)C1CCC(S(=O)(=O)O)C1 (centres unmarked) [Compound 2028, 3-(Methoxycarbonyl)cyclopentane-1-sulfonic acid] | [+3] | [+++]
16 | O=C(O)C1CCC(S(=O)(=O)O)C1 (centres unmarked) [Compound 2029, 3-Sulfocyclopentane-1-carboxylic acid] | [+3] | [+++]
17 | O=C(NCc1ccccc1)C1CCC(S(=O)(=O)O)C1 (centres unmarked) [Compound 2030, 3-(benzylcarbamoyl)cyclopentane-1-sulfonic acid] | [+1] | [+]
18 | O=C(NCc1ccccc1)[C@@H]1C[C@H](S(=O)(=O)O)CN1 [Compound 2055] | [+4] | [++++]
19 | C[C@H](NC(=O)[C@@H]1C[C@H](S(=O)(=O)O)CN1)C(=O)O [Compound 2061] | [+4] | [++++]
20 | CNC(=O)[C@@H]1C[C@@H](S(=O)(=O)O)CN1 [Compound 2084] | [+5] | [+++++]
21 | CCN(CC)C(=O)[C@@H]1C[C@@H](S(=O)(=O)O)CN1 [Compound 2085] | [+4] | [++++]
22 | O=C([C@@H]1C[C@@H](S(=O)(=O)O)CN1)N(CCO)CCO [Compound 2087] | [+4] | [++++]
